Activity calls are given as the source filed them. The calls are words filed in the database; no cut-off is given here.
experiment: Inhibition of recombinant fatty acid synthase thioesterase domain by fluorogenic assay

Row | IC50 [µM] | Activity | Compound
1 | 86.8 |  | CCCCCCCCCCC[C@H](O)C[C@H]1[C@H](CCCCCC)C(=O)N1OCc1ccccc1
2 | 61.2 |  | CCCCCCCCCCC[C@@H](O)C[C@@H]1[C@@H](CCCCCC)C(=O)N1OCc1ccccc1
3 |  | inactive | CCCCCCCCCCC[C@H](C[C@H]1NC(=O)[C@@H]1CCCCCC)OC(=O)CNC=O
4 | 68.9 |  | CCCCCCCCCCC[C@@H](C[C@H]1[C@H](CCCCCC)C(=O)N1OCc1ccccc1)OC(=O)CNC=O
5 | 67.6 |  | CCCCCC[C@@H]1C(=O)N[C@H]1C[C@@H](O)CCCCC
6 | 50.5 |  | CCCCCC[C@@H]1C(=O)N(OCc2ccccc2)[C@H]1C[C@@H](O)CCCCC
7 | 39.2 |  | CCCCCCCCCCC[C@H](C[C@@H]1[C@@H](CCCCCC)C(=O)N1OCc1ccccc1)OC(=O)CNC=O
8 | 8.6 |  | CCCCCCCCCCC[C@@H](C[C@H]1[C@H](CCCCCC)C(=O)N1OCc1ccccc1)O[Si](C)(C)C(C)(C)C
9 |  | inactive | CCCCCCCCCCC[C@@H](C[C@@H]1NC(=O)[C@H]1CCCCCC)OC(=O)CNC=O
10 | 58.2 |  | CCCCCC[C@@H]1C(=O)N(OCc2ccccc2)[C@H]1C[C@H](CCCCC)OC(=O)[C@@H](NC=O)C(C)C
11 | 97.4 |  | CCCCCCCCCCC[C@H](C[C@@H]1[C@@H](CCCCCC)C(=O)N1OCc1ccccc1)O[Si](C)(C)C(C)(C)C
